Test results: patent publication US6462078B1, “Epoxyvibsanin B” (priority 2001, dated 2002)

What was measured:
Format in all cases: cell-based, human
IL-12 production [1] = test: IL-12 inhibitory assay in THP-1 cells stimulated with IFN-γ and SAC (IL-12 p70 sandwich ELISA); details: THP-1 800,000 cells per well, IFN-γ 2000 U/ml + SAC 0.05%; read-out: IC50, inhibition of IL-12 production
Description: The inhibition of IL-12 production was further tested in parallel experiments using two cell lines: PBMC and the human promonocytic leukemia mononuclear cells (THP-1 cells). As described above, PBMC were added to a 96-well plate with 500,000 cells per well, and stimulated for IL-12 production with IFN-γ (200 U/ml) and LPS (1 μg/ml). In parallel, THP-1 cells were added to a 96-well plate with 800,000 cells per well, and stimulated for IL-12 production with IFN-γ (2000 U/ml) and Staph Aureus Cowan I (0.05%, SAC or Pansorbin; from Calbiochem; lot no. B15921). The supernatant from each cell culture was harvested and analyzed for IL-12 p70 with a sandwich ELISA by using the antibodies indicated above. […] The activity of epoxyvibsanin B in inhibiting IL-12 production is 10-fold that of a known anti-inflammatory compound, dexamethazone.

PBMC = system: PBMC
Description: (§1) Epoxyvibsanin B was also tested for cytotoxicity using a Cell Titer 96 Aqueous Non-radioactive kit (Promega, order no. G5421). Phenazine methosulfate (Sigma; catalog no. P 5812) was added as an electron donor to a cell culture containing PBMC (500,000 cells per well) and epoxyvibsanin B (final concentration of 1 μg/ml). 3-(4,5-Dimethylthiazole-2-yl)-5-(3-carbomethoxyphenyl)-2-(4-sulphophenyl)-2H-tetrazolium (MTS) was then added. Cells were incubated for 2 hours in a humidified 37° C., 7% CO2 incubator. The supernatant from the cell culture was harvested and its absorbance at 490 nm was recorded. Cell viability was determined based on the level of MTS (which reacted with mitochondria dehydrogenases enzymes in the living cells), as compared to that obtained from an epoxyvibsanin B-free control experiment. Epoxyvibsanin B was further tested for cytotoxicity toward THP-1 cells.

IL-12 production [2] = test: IL-12 inhibitory assay in PBMC stimulated with IFN-γ and LPS (IL-12 p70 sandwich ELISA)
Description: Mononuclear cells from human peripheral blood (PBMC) were harvested from a leukopak using standard procedures. The cells, diluted to three millions per mL, were maintained in RPMI medium supplemented with fetal calf serum (10%), penicillin (100 U/mL), streptomycin (100 μg/mL) and […] (2 mM). Human interferon gamma (IFN-γ, Boehringer Mannheim; catalog no. 1040596) was diluted to 60 units/mL using the cell-containing supplemented medium. 100 μL of the resulting cell culture was added to each well of a 96-well U-shaped bottom microtiter plate, and incubated overnight in a humidified 37° C., 7% CO2 incubator. Epoxyvibsanin B in 4×RPMI stock medium was added to each well with a final concentration of 1 μg/mL, followed by the addition of lipopolysaccharide (LPS, Serratia […] Sigma; catalog no. L-4766) in 4×RPMI stock medium with a final concentration of 1 μg/mL. The plate was gently vortexed and continuously incubated for 16 hrs. IFN-γ and LPS have stimulated PBMC for IL-12 production. The supernatant from each cell culture was harvested, and the secreted IL-12 p70 in the supernatant was quantitated with a sandwich ELISA using anti-human IL-12 antibodies (R & D systems; catalog no. mAb 611 and catalog no. BAF 219). An epoxyvibsanin B-free control experiment was also perfonned. […] The inhibition of IL-12 production was further tested in parallel experiments using two cell lines: PBMC and the human promonocytic leukemia mononuclear cells (THP-1 cells). As described above, PBMC were added to a 96-well plate with 500,000 cells per well, and stimulated for IL-12 production with IFN-γ (200 U/ml) and LPS (1 μg/ml). In parallel, THP-1 cells were added to a 96-well plate with 800,000 cells per well, and stimulated for IL-12 production with IFN-γ (2000 U/ml) and Staph Aureus Cowan I (0.05%, SAC or Pansorbin; from Calbiochem; lot no. B15921). The supernatant from each cell culture was harvested and analyzed for IL-12 p70 with a sandwich ELISA by using the antibodies indicated above. […]

THP-1 cells = test: Cytotoxicity assay (MTS) in THP-1 cells
Description: as §1

IC50 (IL-12 production [1]): 20 nM
IC50 (IL-12 production [2]; PBMC 500,000 cells per well, IFN-γ 200 U/ml + LPS 1 μg/ml, read-out: IC50, inhibition of IL-12 production): ~1 nM
Substance: epoxyvibsanin B
CC50 (PBMC): 5000 nM
cytotoxicity compared with dexamethazone (PBMC): lower than that of dexamethazone
inhibition of IL-12 production, as compared with control (IL-12 production [2]; PBMC, IFN-γ 60 units/mL + LPS 1 μg/mL, compound 1 μg/mL, 16 hrs): 90%
activity in inhibiting IL-12 production relative to dexamethazone (IL-12 production [2]; compared with dexamethazone, cell type not specified): 10 fold
CC50 (THP-1 cells): 10000 nM
